In patent US4402972A, “Cyclopropane carboxylic acid derivatives” (Roussel Uclaf, priority 1980, dated 1983):

Legend:
houseflies [1] = assay: Insecticidal activity on houseflies, topical application; format: in vivo; settings: 1 μl acetone solution, dorsal thorax, 4 day old females, 24 hours
Protocol: The test was effected on 4 day old female houseflies which received a topical application of 1 μl of an acetone solution of the test compound on the dorsal thorax with an Arnold micro-manipulator. 50 insects were used for each test and the number of dead insects were determined after 24 hours to calculate the LD50 dose in nanograms (the dose killing 50% of the insects).

[2] = tested on: Spodoptera littoralis larvae; assay: Activity against Spodoptera littoralis larvae, topical application; format: in vivo; settings: dorsal thorax, fourth stage larvae, 48 hours
Protocol: The test was carried out on larvae of Spodoptera littoralis by applying an acetone solution of the test compound with an Arnold micro-manipulator to the dorsal thorax of the larvae. 10 to 15 larvae were used for each tested dose and the larvae were in the fourth stage (about 10 days old at 24° C. and 65% relative humidity). The larvae were then placed in an artifical medium (Poitout medium) and the number of dead were determined after 48 hours to calculate the LD50 in ng.

[3] = tested on: Epilachna varivestris Larvae; assay: Activity against Epilachna varivestris larvae, topical application; format: in vivo; settings: for LD50: topical, second last stage larvae, 72 hours
Protocol: The test was carried out by topical application of the test compounds as in test B and the larvae of Epilachna variestris were in second last stage. The treated larvae were then placed on bean plants and the number of dead was determined after 72 hours to calculate the LD50 in ng.

houseflies [4] = assay: Knock-down activity on houseflies, direct spray in Kearns and March chamber; format: in vivo; settings: for KT50: 0.25 g/l solution, 2 ml, direct spray, 4 day old females
Protocol: 50 4 day old female houseflies per dose were directly sprayed in a Kearns and March chamber with a solution of the 0.25 g/l of the test compound in 2 ml of a mixture of 5% of acetone and Isopar L (petroleum solvent) in one second.

[5] = tested on: Boophilus microplus larvae (Mexico sensitive); assay: Activity against Boophilus microplus larvae, Mexico sensitive strain; format: in vivo
Protocol: (§1) A 10% emulsifiable concentrate was prepared by dissolving the test compound of Example 6 in a mixture of dimethylformamide, emulsifiers and Arcopal and the concentrate was diluted with water to obtain solutions of 10,5 and 1 ppm of active compound. The different solutions were sprayed by a spraying tower on to larvae of tropical cattle ticks of the Boophilus microplus type (Mexico sensitive and DDT resistant strains) and the number of dead and live larvae was determined after 24 hours.

[6] = tested on: Boophilus microplus larvae (DDT resistant); assay: Activity against Boophilus microplus larvae, DDT resistant strain; format: in vivo
Protocol: as §1

[7] = tested on: Rhipicephalus appendiculatus; assay: Activity against Rhipicephalus appendiculatus ticks; format: in vivo
Protocol: as §1
(§2) The test procedure of F was repeated with the compound of Example 6 at doses of 100, 10 and 1 ppm using 10 ticks of Rhipicephalus appendiculatus or Amblyomma hebraeum per test as above.

Amblyomma hebraeum = assay: Activity against Amblyomma hebraeum ticks; format: in vivo
Protocol: as §1, §2

[8] = tested on: Boophilus microplus ticks (Mexico sensitive strain); assay: Inhibition of reproduction of Boophilus microplus ticks; format: in vivo
Protocol: Female Boophilus microplus ticks of the Mexico sensitive strain ready to lay eggs were immersed for 5 minutes in solutions of 100, 50, 25, 12.50 and 6.25 ppm of the compound of Example 6 and then they were placed in a heated enclosure to lay their eggs.

insects = assay: Insecticidal activity (general statement); settings: in vivo
[9] = tested on: mixture of spores of Fusarium roseum, Penicillium roquefonti and Aspergilus niger; assay: Antifungal activity, adhesive test (3% carboxymethyl starch); format: cell-based; settings: for Growth of Fungus after 48 hours / Growth of Fungus after 8 days: scale of 3 to 0, untreated control 3
Protocol: The antifungal activity of (1R,cis) 2,2-dimethyl-3-[Z-2-(methoxycarbonyl)-ethenyl]-cyclopropane-carboxylic acid was determined in an adhesive test using an aqueous 3% carboxymethyl starch solution. The test compound was dissolved in 1 ml of acetone and 5 ml of an innoculum consisting of a mixture of spores of Fusarium roseum, Penicillium roquefonti and Aspergilus niger were added thereto. The development of fungus after 48 hours and 8 days was compared to an untreated control on a scale of 3 to 0.

[10] = tested on: mixture of spores of Geotrichum, Trichosporon and Cephalosporium; assay: Anti-fungal test on oils (3% synthetic fluid); format: cell-based; settings: for Anti-fungal growth after 48 hours: control 49 × 10^3 Geo. + 80 × 10^3 Tri. + 11 × 10^3 Cep.
Protocol: A solution of 3% of synthetic fluid was used to test the anti-fungal activity of (1R,cis) 2,2-dimethyl-3-[Z-2-(methoxycarbonyl)-ethenyl]-cyclopropane-carboxylic acid and contamination was effected with 5 ml of an innoculum consisting of a mixture of spores of Geotrichum, Trichosporon and Cephalosporium.

[11] = tested on: mixture of spores of Aerobacter aerogenes, Pseudomonas aeruginosa, Escherichia coli, Serratia mancescens and Bacillus subtilis; assay: Bactericidal activity (3% carboxymethyl starch in water); format: cell-based; settings: for bacterial population after 48 hours: control 12 × 10^7; for bacterial population after 8 days: control 16 × 10^7
Protocol: The bactericidal activity of (1R,cis) 2,2-dimethyl-3-[Z-2-(methoxycarbonyl)-ethenyl]-cyclopropane-carboxylic acid was determined with a solution of 3% of carboxymethyl starch in water. The test compound was placed in 1 ml of water and 5 ml of an innoculum of a mixture of spores of Aerobacter aerogenes, Pseudomonas aeruginosa, Escherichia coli, Serratia mancescens and Bacillus subtilis were added thereto. The mixture was placed in an oven for 48 hours at 37° C. and then for 6 days at 20° C. The bacterial population ([…]) was determined 48 hours and 8 days by the serum dihibition method and incorporation into broth containing agar.

[12] = tested on: Fusarium, Penicillium, Aspergilus, Geotrichum, Trichosporon and Cephalosporium; assay: Antifungal activity of the acids (general statement); format: cell-based
[13] = Mexico sensitive and DDT resistant strains together
[14] = Rhipicephalus microplus, in Bos taurus, 1 ppm, 24 hours
[15] = Rhipicephalus microplus, in Bos taurus, 5 ppm, 24 hours
[16] = Rhipicephalus microplus, in Bos taurus, 10 ppm, 24 hours

CC(C)OC(=O)/C=C\[C@H]1[C@@H](C(=O)O[C@H](C#N)c2cccc(Oc3ccccc3)c2)C1(C)C [Example 5, (S)α-cyano-3-phenoxy-benzyl (1R,cis) 2,2-dimethyl-3-[Z-2-(isopropoxycarbonyl)-ethenyl]-cyclopropane-carboxylate]
LD50 (houseflies [1]): 2.781 ng | LD50 [2]: 7.920 ng | LD50 [3]: 3.705 ng | KT50 (houseflies [4]): 4.390 min

CC(C)(C)OC(=O)/C=C\[C@H]1[C@@H](C(=O)O[C@H](C#N)c2cccc(Oc3ccccc3)c2)C1(C)C [Example 6, (S)α-cyano-3-phenoxy-benzyl (1R,cis) 2,2-dimethyl-3-[Z-2-(tert.-butoxycarbonyl)-ethenyl]-cyclopropane-carboxylate]
insecticidal activity against Epilachna larvae (in words) ([3]; in vivo): good insecticidal activity | LD50 [3]: 0.446 ng | activity against Boophilus microplus larvae, Mexico sensitive (in words) [5, 13]: remarkable activity | mortality at 1 ppm [5, 14]: 100% | mortality at 5 ppm [5, 15]: 100% | mortality at 10 ppm [5, 16]: 100% | activity against Boophilus microplus larvae, DDT resistant (in words) [6, 13]: remarkable activity | mortality at 1 ppm [6, 14]: 100% | mortality at 5 ppm [6, 15]: 100% | mortality at 10 ppm [6, 16]: 100% | mortality at 1 ppm ([7]; Rhipicephalus appendiculatus, 1 ppm): 100% | mortality at 10 ppm ([7]; Rhipicephalus appendiculatus, 10 ppm): 100% | mortality at 100 ppm ([7]; Rhipicephalus appendiculatus, 100 ppm): 100% | tickicide activity against Rhipicephalus appendiculatus (in words) ([7]; in vivo): excellent tickicide activity | mortality at 1 ppm (Amblyomma hebraeum; Amblyomma hebraeum, 1 ppm): 70% | mortality at 10 ppm (Amblyomma hebraeum; Amblyomma hebraeum, 10 ppm): 100% | mortality at 100 ppm (Amblyomma hebraeum; Amblyomma hebraeum, 100 ppm): 100% | tickicide activity against Amblyomma hebraeum (in words) (Amblyomma hebraeum; in vivo): excellent tickicide activity | inhibition at 6.25 ppm ([8]; Rhipicephalus microplus, 5 min, 6.25 ppm, 5 minutes immersion): 100% | inhibition at 12.5 ppm ([8]; Rhipicephalus microplus, 5 min, 12.50 ppm, 5 minutes immersion): 100% | inhibition at 25 ppm ([8]; Rhipicephalus microplus, 5 min, 25 ppm, 5 minutes immersion): 100% | inhibition at 50 ppm ([8]; Rhipicephalus microplus, 5 min, 50 ppm, 5 minutes immersion): 100% | inhibition at 100 ppm ([8]; Rhipicephalus microplus, 5 min, 100 ppm, 5 minutes immersion): 100% | tickicide activity, reproduction test (in words) ([8]; in vivo): remarkable tickicide activity

COC(=O)/C=C\[C@H]1[C@@H](C(=O)O[C@H](C#N)c2cccc(Oc3ccccc3)c2)C1(C)C [Example 1, (S)α-cyano-3-phenoxy-benzyl (1R,cis) 2,2-dimethyl-3-[Z-2-methoxycarbonyl-ethenyl]-cyclopropane-carboxylate]
LD50 (houseflies [1]): 7.128 ng | LD50 [2]: 3.602 ng | LD50 [3]: 8.290 ng | KT50 (houseflies [4]): 1.226 min | knock-down activity (in words) (houseflies [4]; in vivo): remarkable knock-down activity | insecticidal activity (in words) (insects): particularly remarkable insecticidal activity

CCOC(=O)/C=C\[C@H]1[C@@H](C(=O)O[C@H](C#N)c2cccc(Oc3ccccc3)c2)C1(C)C [Example 3, (S)α-cyano-3-phenoxy-benzyl (1R,cis) 2,2-dimethyl-3-[Z-2-(ethoxycarbonyl)-ethenyl]-cyclopropane-carboxylate]
LD50 (houseflies [1]): 3.494 ng | LD50 [2]: 3.260 ng | LD50 [3]: 8.850 ng | KT50 (houseflies [4]): 3.340 min

COC(=O)/C=C\[C@H]1[C@@H](C(=O)O)C1(C)C (relative stereo) [(1R,cis) 2,2-dimethyl-3-[(Z)-2-(methoxycarbonyl)-ethenyl]-cyclopropane-carboxylic acid]
anti-fungal activity (in words) [9]: good anti-fungal activity | Growth of Fungus after 48 hours ([9]; 0.01 % concentration): 3 | Growth of Fungus after 8 days ([9]; 0.01 % concentration): 3 | Growth of Fungus after 48 hours ([9]; 0.05 % concentration): 0 | Growth of Fungus after 8 days ([9]; 0.05 % concentration): 0 | antifungal activity on oils (in words) [10]: good antifungal activity | Anti-fungal growth after 48 hours ([10]; 0.5 % concentration): 0 | Anti-fungal growth after 48 hours ([10]; 1 % concentration): 0 | bactericidal activity (in words) [11]: good bactericidal activity | bacterial population after 48 hours ([11]; 0.025%): 10 × 10^4 colorless ml | bacterial population after 8 days ([11]; 0.025%): 16 × 10^6 colorless ml | bacterial population after 48 hours ([11]; 0.05%): 52 × 10^2 colorless ml | bacterial population after 8 days ([11]; 0.05%): 68 × 10^4 colorless ml | fungicidal properties / antifungal activity (in words) [12]: interesting fungicidal properties
